# Reference: patent publication US20230372335A1, “TREATMENT OF COGNITIVE IMPAIRMENT WITH A CNS-PENETRANT sGC STIMULATOR” (Cyclerion Therapeutics, Inc., priority 2020, published 2023)
# Entries after “also recorded” stand apart in the source; their conditions may differ.
# Experiments:
# [1] = test system: pre-clinical models; conditions: cited from earlier work
# [2] = test system: rats; conditions: cited from earlier work
# [3] = Plasma and CSF concentrations in NCT03856827 trial; format: in vivo, human; conditions: total oral daily dose of 10 mg
# [4] = CSF concentration of study drug (pharmacokinetics), NCT04240158; format: in vivo, human
# Experimental: (§1) One dosage regimen was studied in this clinical trial. For subjects receiving IW-6463 during the given dosing period, IW-6463 tablets were administered orally at a 15-mg total once-daily dose for. For subjects receiving placebo during the given dosing period, placebo tablets to match IW-6463 tablets were used. For Cohort 1, the 15 mg total oral daily dose was selected based on emerging data from the Phase 1 study NCT03856827, pre-clinical qEEG results, as well as multispecies PK parameters. For Cohort 2, in addition to the those data. the emerging data from Cohort 1 of this study supported selection of the 15 mg total oral daily dose.
# The PK analysis population is defined as all participants who were randomized, received at least 1 dose of study drug, and have at least 1 measurable drug concentration of Compound 1 in collected samples.
# [5] = test system: healthy elderly participants; test: Resting-state EEG power spectra, healthy elderly study NCT04240158; format: in vivo, human
# Experimental: Resting-state EEG recordings with open and closed eyes for 5 min in each eye state were performed. Each recording employed alternating periods with eyes open and closed with a duration of 64-seconds for each period. Participants faced a featureless wall and were instructed not to stare, not to move their head and eyes, and to suppress eye blinks.
# An EEG cap with electrodes at the Fz, Cz, Pz, and Oz positions (referring to frontal, central, parietal, and occipital regions at the midline, respectively) was used to record signals. Analyses of EEG-power spectra signals were carried out at the following frequency bands: • Delta-1-4 Hz (typically associated with sleep), Theta-4-7.5 Hz (associated with waking/falling asleep, some association with cognition), Alpha-8-12 Hz (associated with passive wakefulness, and with cognitive processing), Beta-12-25 Hz (associated with alertness and concentration) and Gamma-25-45 Hz (associated with higher cognitive function).
# (§2) This single-center double-blind, randomized, placebo-controlled, two-way, cross-over study evaluated a single dose level of IW-6463 compared to placebo. Subjects (male and female) were enrolled into 2 pre-defined, staggered cohorts (Cohort 1 and Cohort 2). The dose selected for both cohorts was the same but the start of enrollment within each cohort was different. This was based upon the availability of preliminary data from the previously started Phase 1 study NCT03856827 in healthy subjects and the emerging safety profile for that study from which a potential different second dose was being considered, but finally was not selected.
# as §1
# [6] = test system: CSF neuroinflammatory markers; test: Exploratory CSF biomarker analysis, NCT04240158; format: in vivo, human; conditions: after two weeks of treatment
# From the text: Biomarkers measured in the CSF included: neurofilament light chain (NF-L) and cGMP. Other biomarkers measured in CSF include A2M, C3, TIMP1, PAI1 MCP1, PARC (CCL18), MMP3 and TNFR2.
# [7] = test system: healthy elderly participants; test: Saccadic eye movements (SEM), NeuroCart, NCT04240158; format: in vivo, human; conditions: 15 mg oral once daily
# Experimental: In this trial, SEMs were recorded at different times. Recording and analysis of SEMs were conducted with a microcomputer-based system for sampling and analysis of eye movements. The program for signal collection and the AD-converter was from Cambridge Electronic Design (CED Ltd., Cambridge, UK), the amplification by Grass (Grass-Telefactor, An Astro-Med, Inc. Product Group, Braintree, MA, USA) and the sampling and analysis scripts were developed at the CHDR (Leiden, the Netherlands). Disposable silver-silver chloride electrodes (Ambu Blue Sensor N) were applied on the forehead and beside the lateral canthi of both eyes of the participant for registration of the electro-oculographic signals. Skin resistance was reduced to less than 5 kOhm before measurements. […] SEMs were recorded for stimulus amplitudes of approximately 15 degrees to either side. Fifteen saccades were recorded with interstimulus intervals varying randomly between 3 and 6 seconds. […] Saccadic inaccuracy was calculated as the absolute value of the difference between the stimulus angle and the corresponding saccade, expressed as a percentage of the stimulus angle. SEMs were recorded in a training session at screening and during each Neurocart session (on day 1 and 15 of each treatment period at 2 hours pre-dose; on day 15 of each treatment period at 2, 3, and 6 hours post-dose). […]
# [8] = test system: rodents; conditions: pre-clinical models; cited from earlier work
# [9] = test system: healthy elderly participants; test: N200 (MMN) auditory event-related potential by EEG, NCT04240158; format: in vivo, human; conditions: for ERP N200 amplitude: vs placebo or pre-treatment (FIG. 3); for N200 latency response vs age: subjects older than 70 vs 65-69 years old (FIG. 4, FIG. 8)
# Experimental: In P300 and N200 ERP studies, participants were seated wearing the EEG cap and headphones and were instructed to sit still and relax. During the task, participants were presented with auditory tones. Participants were instructed to pay attention to the tones and press a response-button when they heard an infrequent/deviant tone. A total of 500 tones were presented over […], of which 400 were presented as frequent stimuli and 100 as deviant/infrequent stimuli. […] The first 5 trials were frequent tones and there were at least 2 frequent tones between 2 deviant/infrequent tones. The frequent and infrequent tones were 150 ms tones of 500 Hz and 1000 Hz at a sound pressure level of 75 dB, respectively. All tones has a 5 ms rise and fall time. Tones were presented at a fixed rate of 1 Hz.
# as §2, §1
# [10] = test system: healthy elderly participants; test: Safety and tolerability (adverse events, blood pressure), NCT04240158; format: in vivo, human
# Experimental: Evaluations of systolic and diastolic blood pressure, pulse rate, respiratory rate, and temperature were performed throughout the study. Pulse and blood pressure were taken after the participant had rested quietly for 5 minutes in supine position. Automated oscillometric blood pressures and pulse rate were measured using a Dash 3000, Dash 4000, Dynamap 400, or Dynamap ProCare 400.
# as §1
# The safety population is defined as all participants who were randomized and received at least 1 dose of study drug.
# [11] = test system: healthy subjects aged 18 to 62; test: EEG in Phase I clinical trial NCT03856827; format: in vivo, human
# From the text: Nonclinical pharmacology and toxicology data supported conducting clinical studies of Compound Ito assess its safety, tolerability, pharmacokinetic (PK), and pharmacodynamics (PD) in humans. In a Phase I clinical trial (NCT03856827) changes were also observed in the brains of healthy subjects aged 18 to 62 by EEG.
# [12] = healthy elderly, 15 mg oral once daily
# [13] = healthy elderly, 15 mg oral once daily, Day 15
# [14] = safety population, 15 mg oral once daily up to 15 days
smiles,measurement,setting,value
Fc1ccccc1Cc1nc(-c2nc(C(F)(F)F)n[nH]2)cn2ccnc12 [Compound I],effects on memory and learning,[1],displaying effects on memory and learning
same,effects on neuroinflammation,[1],positive effects on neuroinflammation
same,neuroprotective properties,[1],displayed neuroprotective properties
same,qEEG gamma power in combination with donepezil,"[2]; 10 mg/kg oral plus 1 mg/kg donepezil, 1-2 hours post-dose",further increased
same,qEEG gamma oscillations / gamma power compared to vehicle dosing,[2]; oral suspension,increased gamma oscillations
same,qEEG gamma power,[2]; orally at 10 mg/kg,increased gamma power
same,mean plasma and CSF concentrations vs threshold for pharmacological activity in the brain,[3],exceed the threshold
same,concentration at 5 h,"[4]; human, CSF, 15 mg oral once daily, 5-hrs post last dose",77 nM
same,CSF concentration relative to threshold expected for pharmacological activity in the brain,[4]; threshold determined from preclinical models,2-3 times
same,mean alpha band power relative to placebo,"[5]; Day 15 prior to last dose and 2, 3, 6 hours after last dose (FIG. 1)",increased mean alpha band power relative to placebo at all post-baseline timepoints
same,"EEG (anterior) gamma power, change from baseline",[5]; [12],1 dB
same,"EEG (anterior) gamma power, increase from baseline",[5]; [12],45%
same,"EEG (anterior) alpha power, change from baseline",[5]; [13],0.6 dB
same,"EEG (anterior) alpha power, increase from baseline",[5]; [13],17.5%
same,"EEG (anterior) alpha power, treatment effect vs placebo",[5]; [13],13%
same,"EEG (posterior) alpha power, change relative to baseline",[5]; [13],0.5 dB
same,"EEG (posterior) alpha power, increase from baseline",[5]; [13],13.7%
same,"EEG (posterior) alpha power, treatment effect vs placebo",[5]; [13],17%
same,CSF concentration of Alpha 2 macroglobulin (A2M) vs placebo,[6]; nominal p 0.013 (FIG. 9),potentially important reductions in the concentrations
same,CSF concentration of complement C3 (C3) vs placebo,[6]; nominal p 0.039 (FIG. 9),potentially important reductions in the concentrations
same,LS mean difference in change from baseline for saccadic peak velocity vs placebo (95% CI),[7]; day 15,"28.53 (−2.76, 59.83)"
same,LS mean difference in change from baseline for saccadic latency (reaction time) vs placebo,"[7]; day 15, p=0.0216",-6.58 ms
same,activation of brain regions by fMRI-BOLD,[8],activation of subcortical brain structures relevant to cognition
same,cerebral blood flow (CBF),[8],increased cerebral blood flow
same,magnitude of improvement as age related change in N200 latency,"[9]; at older ages, after two weeks of treatment",10 year
same,ERP N200 latency,"[9]; healthy elderly, 15 mg oral once daily, day 14, compared with placebo, p=0.02",significantly shorter
same,ERP N200 amplitude,[9]; [12],larger N200 negative amplitudes were observed with increasing age
same,ERP N200 amplitude,"[9]; healthy elderly, 15 mg oral once daily, listed as IW-6463",increased the amplitude
same,N200 latency response vs age,[9],smaller latency increases with increasing age; also recorded: greater in subjects older than 70 years old
same,N200 latency response vs age,[9]; listed as IW-6463,greater in subjects older than 70 years old
same,headache (most commonly reported CNS event) rate,[10]; IW-6463 vs placebo,rates were similar between treatments
same,"AE reports of syncope, hypotension or other hemodynamic events",[10]; [14],"no AE reports of syncope, hypotension or other events potentially related to changes in hemodynamics"
same,blood pressure measurements below the normal range,[10]; [14],no blood pressure measurements reported below the normal range
same,alpha power compared to placebo,"[11]; NCT03856827, day 14, across all dosage levels tested",Improvements in alpha power
same,ERP P300 amplitude,"[11]; healthy subjects aged 18 to 62, NCT03856827",increase in amplitude with increasing dose level
